# Results as given in US7625889B2, “Substituted bis aryl and heteroaryl compounds as selective 5HT2A antagonists” (Aventis Pharmaceuticals Inc., priority 2005, dated 2009).
# Tested on: newborn Sprague Dawley rats
# Experiment: Obstructive Sleep Apnea Studies (L-tryptophan plus pargyline)
# Type: in vivo, rat
# Experimental: Intraperitoneal application of L-tryptophan (10 mg/kg) and pargyline (50 mg/kg) to anaesthetized newborn rats depresses the amplitude of the inspiratory discharges of the genioglossal muscle and induces obstructive apneas (OA). The following procedure describes how to determine the efficacy of the compounds of this invention when compared with the efficacy of theophylline.
# Experiments are carried out on newborn Sprague Dawley rats. The animals are anaesthetized by intraperitoneal injection of low doses of sodium pentobarbitone (7-10 mg/kg), kept lying (dorsal cubitus) on a warming blanket and are spontaneously ventilating.
# The electromyogram (EMG) activity of the genioglossal muscles and the diaphragm are recorded with fine insulated wires (bipolar recordings) inserted within the muscles, filtered (100-3,000 Hz), amplified (×5-10,000) and integrated (time constant 50 ms). The rib cage movements are recorded via a captor gently touching the lower ribs and/or the abdominal wall. The air flow changes resulting from the respiratory chest movements are recorded via a facial mask and a highly sensitive pressure recorder. […]
# Effects of theophylline pre-treatment on the occurrence of obstructive apneas induced by 1-tryptophan and pargyline injection are measured as follows: Five newborn rats receive theophylline at 10 mg/kg and 5 other animals receive theophylline at 30 mg/kg. […]
compound,measurement,setting,value
Cn1c(=O)c2[nH]cnc2n(C)c1=O [theophylline],induction of OAs after L-Trp+Prg injection,theophylline 10 or 30 mg/kg,not prevented
same,depression of amplitude of GG inspiratory discharges by L-Trp+Prg injection,theophylline pre-treatment 10 mg/kg or 30 mg/kg,not prevented
